Measurements reported in paper PMC7163368 (British Journal of Clinical Pharmacology, 2020).
Values joined by “and” are separate entries in the source; they are usually repeats but may differ in a detail not shown here. Equal values may be shown once. “Also recorded” adds a separate entry of the source.

Assays:
DPP‐IV = conditions: oral administration of 400 mg; cited from earlier work
[1] = Plasma pharmacokinetics of parenterally administered dutogliptin; type: in vivo, human; conditions: for AUC / AUC(0-inf) / Tmax / k el / half-life / bioavailability: human, plasma
[2] = Safety and tolerability: adverse events, laboratory, ECG, physical examination; type: in vivo, human

SMILES: O=C(CN[C@@H]1CCNC1)N1CCC[C@H]1B(O)O [dutogliptin]
- Inhibition of DPP‐IV activity (DPP‐IV): approximately 85%
- Peak plasma concentration ([1]; 30 mg i.v. (n = 5), day 0, mean (SD)): 2352 (211) ng/mL
- Peak plasma concentration ([1]; 30 mg s.c. (n = 5), day 0, mean (SD)): 1232 (97) ng/mL
- Peak plasma concentration ([1]; 60 mg s.c. (n = 10), day 0, mean (SD)): 2757 (517) ng/mL
- Peak plasma concentration ([1]; 90 mg s.c. (n = 10), day 0, mean (SD)): 3641 (672) ng/mL
- Peak plasma concentration ([1]; 120 mg s.c. (n = 10), day 0, mean (SD)): 5093 ng/mL and 5093 (873) ng/mL
- Increase in maximal plasma levels ([1]; 120 mg s.c. compared to 500 mg orally administered dutogliptin): > 6 fold
- Maximum plasma concentration ([1]; 120 mg s.c. multiple dose, day 6 (n = 5), SD: 544): 6024 ng/mL
- AUC ([1]; iv, 30 mg): 4080 ng·h/mL
- AUC(0-inf) ([1]; iv, 30 mg): 4090 ng·h/mL
- Tmax ([1]; iv, 30 mg): 0.08 h
- k el ([1]; iv, 30 mg): 5.56e-05 s⁻¹
- half-life ([1]; iv, 30 mg, T1/2, 30 mg i.v. (n = 5), day 0, mean (SD)): 3.68 h
- bioavailability ([1]; sc): ~100%
- AUC ([1]; sc, 30 mg): 4050 ng·h/mL
- AUC(0-inf) ([1]; sc, 30 mg): 4060 ng·h/mL
- Tmax ([1]; sc, 30 mg): 0.7 h
- bioavailability ([1]; sc, 30 mg): 99%
- k el ([1]; sc, 30 mg): 5.83e-05 s⁻¹
- half-life ([1]; sc, 30 mg, T1/2, 30 mg s.c. (n = 5), day 0, mean (SD)): 3.37 h
- AUC ([1]; sc, 60 mg): 9060 ng·h/mL
- AUC(0-inf) ([1]; sc, 60 mg): 9110 ng·h/mL
- Tmax ([1]; sc, 60 mg): 0.85 h
- bioavailability ([1]; sc, 60 mg): 109%
- k el ([1]; sc, 60 mg): 5.56e-05 s⁻¹
- half-life ([1]; sc, 60 mg, T1/2, 60 mg s.c. (n = 10), day 0, mean (SD)): 3.58 h
- AUC ([1]; sc, 90 mg): 12200 ng·h/mL
- AUC(0-inf) ([1]; sc, 90 mg): 12200 ng·h/mL
- Tmax ([1]; sc, 90 mg): 0.85 h
- bioavailability ([1]; sc, 90 mg): 96%
- k el ([1]; sc, 90 mg): 5.56e-05 s⁻¹
- half-life ([1]; sc, 90 mg, T1/2, 90 mg s.c. (n = 10), day 0, mean (SD)): 3.64 h
- AUC ([1]; sc, 120 mg): 17200 ng·h/mL
- AUC(0-inf) ([1]; sc, 120 mg): 17300 ng·h/mL
- Tmax ([1]; sc, 120 mg): 0.9 h
- bioavailability ([1]; sc, 120 mg): 95%
- k el ([1]; sc, 120 mg): 5.83e-05 s⁻¹
- half-life ([1]; sc, 120 mg, T1/2, 120 mg s.c. (n = 10), day 0, mean (SD)): 3.32 h
- half-life ([1]; sc, Half‐life, subcutaneous injection, pooled, SD: 0.46): 3.49 h
- Accumulation of the study drug ([1]; multiple injections at daily intervals): did not lead to the accumulation of the study drug
- AEs with intravenous bolus injection ([2]; 30 mg i.v.): not associated with any AEs
- Dose dependence of related systemic AEs ([2]; P > .999): No dose‐dependent increase
- Dose dependence of subjects experiencing at least 1 local AE ([2]; P > .999): no dose‐dependent increase
- Erythema, related: subjects with at least 1 AE ([2]; Total (n = 40)): 34 (85%)
- Fatigue, related: subjects with at least 1 AE ([2]; Total (n = 40)): 2 (5%)
- Headache, related: subjects with at least 1 AE ([2]; Total (n = 40)): 2 (5%)
- Hematoma, related: subjects with at least 1 AE ([2]; Total (n = 40)): 4 (10%)
- Local AEs, related: subjects with at least 1 AE ([2]; Total (n = 40)): 34 (85%)
- Other local AEs, related: subjects with at least 1 AE ([2]; Total (n = 40)): 1 (3%)
- Other systemic AEs, related: subjects with at least 1 AE ([2]; Total (n = 40)): 2 (5%)
- Pain with touching, related: subjects with at least 1 AE ([2]; Total (n = 40)): 8 (20%)
- Pain without touching, related: subjects with at least 1 AE ([2]; Total (n = 40)): 3 (8%)
- Swelling, related: subjects with at least 1 AE ([2]; Total (n = 40)): 2 (5%)
- Systemic AEs, related: subjects with at least 1 AE ([2]; Total (n = 40)): 6 (15%)
- Nonrelated serious AE (head injury, hospitalization) ([2]; all cohorts): 1
- Nonrelated severe AEs ([2]; all cohorts): Two nonrelated severe AEs
- Related systemic AEs, total ([2]; all cohorts): 6
- Related serious (or severe) adverse events ([2]; all cohorts, 40 healthy males): No related serious adverse events occurred; also recorded: No study drug‐related severe or serious AEs were observed
- All AEs, related: subjects with at least 1 AE ([2]; i.v. single dose 30 mg (n = 5)): 0
- Erythema, related: subjects with at least 1 AE ([2]; i.v. single dose 30 mg (n = 5)): 0
- Fatigue, related: subjects with at least 1 AE ([2]; i.v. single dose 30 mg (n = 5)): 0
- Headache, related: subjects with at least 1 AE ([2]; i.v. single dose 30 mg (n = 5)): 0
- Hematoma, related: subjects with at least 1 AE ([2]; i.v. single dose 30 mg (n = 5)): 0
- Induration, related: subjects with at least 1 AE ([2]; i.v. single dose 30 mg (n = 5)): 0
- Local AEs, related: subjects with at least 1 AE ([2]; i.v. single dose 30 mg (n = 5)): 0
- Other local AEs (burning sensation at the injection site), related: subjects with at least 1 AE ([2]; i.v. single dose 30 mg (n = 5)): 0
- Other systemic AEs (dizziness and nausea), related: subjects with at least 1 AE ([2]; i.v. single dose 30 mg (n = 5)): 0
- Pain with touching, related: subjects with at least 1 AE ([2]; i.v. single dose 30 mg (n = 5)): 0
- Pain without touching, related: subjects with at least 1 AE ([2]; i.v. single dose 30 mg (n = 5)): 0
- Swelling, related: subjects with at least 1 AE ([2]; i.v. single dose 30 mg (n = 5)): 0
- Systemic AEs, related: subjects with at least 1 AE ([2]; i.v. single dose 30 mg (n = 5)): 0
- All AEs, related: subjects with at least 1 AE ([2]; s.c. multidose 60 mg (n = 5)): 5 (100%)
- Erythema, related: subjects with at least 1 AE ([2]; s.c. multidose 60 mg (n = 5)): 5 (100%)
- Fatigue, related: subjects with at least 1 AE ([2]; s.c. multidose 60 mg (n = 5)): 1 (20%)
- Headache, related: subjects with at least 1 AE ([2]; s.c. multidose 60 mg (n = 5)): 0
- Hematoma, related: subjects with at least 1 AE ([2]; s.c. multidose 60 mg (n = 5)): 1 (20%)
- Induration, related: subjects with at least 1 AE ([2]; s.c. multidose 60 mg (n = 5)): 4 (80%)
- Local AEs, related: subjects with at least 1 AE ([2]; s.c. multidose 60 mg (n = 5)): 5 (100%)
- Other local AEs, related: subjects with at least 1 AE ([2]; s.c. multidose 60 mg (n = 5)): 0
- Other systemic AEs, related: subjects with at least 1 AE ([2]; s.c. multidose 60 mg (n = 5)): 0
- Pain with touching, related: subjects with at least 1 AE ([2]; s.c. multidose 60 mg (n = 5)): 3 (60%)
